Source: publication PMC6013238, “Development of novel NEMO-binding domain mimetics for inhibiting IKK/NF-κB activation” (PLoS Biology, 2018)
“And” between values parts separate entries of the source, which are not always exact repeats. Equal entries are not always repeated.

Key:
NF-κB activation = assay: NF-κB firefly luciferase reporter assay, TNF-α-stimulated stably transfected HEK293 cells; type: cell-based, human; conditions: TNF-α 10 ng/ml 3 h, vehicle = 100, single experiments; for NF-κB luciferase activity normalized to vehicle: Fig 2C, derivatives at 100 μM; for NF-κB luciferase activity normalized to untreated stimulated control: Fig 2A, 100 μM, 30 min pretreatment
Procedure: To determine whether the small molecules identified by the in silico screening inhibit NF-κB activation, a HEK293 cell line stably expressing a luciferase reporter driven by a synthetic, NF-κB-dependent promoter was utilized. To induce NF-κB activation, cells were treated with 10 ng/mL of TNF-α and harvested 3 h post treatment for analysis of luciferase activity. […] To determine whether ZINC12909780 inhibits NF-κB in a dose-dependent manner, concentrations were tested at 0, 6.25, 25, 50, and 100 μM.
Luciferase activity was normalized to untreated stimulated control cells. […] Cell viability was calculated by normalizing to untreated cells. […] Underlying data can be found in S1 Data.
HEK293 cells stably transfected with luciferase reporter plasmid driven by NF-κB were seeded in 96-well plates in triplicate and pretreated with DMSO or varying small molecules at indicated concentration for 30 min, followed by the stimulation of 10 ng/ml of TNF-α for 3 h. Cells were washed with PBS once and harvested in Passive Lysis Buffer (Promega, Madison, WI). Luciferase assay (Promega) was performed by using a luminometer according to the manufacturer’s instructions.

HEK293 cells = conditions: Fig 2D; 100 μM, 24 h
Procedure: (A) HEK293 cells stably expressing NF-κB luciferase reporter were pretreated with indicated small molecules at 100 μM for 30 min, followed by stimulation with TNF-α (10 ng/ml) for 3 h. Luciferase activity was normalized to untreated stimulated control cells. […] (B) The dose-dependent response of ZINC12909780 was tested by NF-κB luciferase assay in HEK293 cells. Three independent experiments were performed, and data shown represent mean +/− SD. […] (D) HEK293 cells were cultured in the presence of 100 μM of indicated derivatives for 24 h, and cell survival was determined by MTT assay. Cell viability was calculated by normalizing to untreated cells. (E) Dose-dependent inhibitory effects were determined for ZINC5 at 0, 25, 50, and 100 μM by using NF-κB luciferase assay. (F) HEK293 were cultivated in the presence of ZINC5 at listed concentrations for 24 h, and cell survival was assessed by MTT assay. Data represent the mean +/− SD from 4–5 independent experiments. *P < 0.05; **P < 0.01; ***P < 0.001. Underlying data can be found in S1 Data. HEK293, human embryonic kidney 293 cells; MTT, 3-(4,5-dimethylthiazol-2-yl)-2,5-dephenyltetrazolium bromide colormetric assay for assessing cell metabolic activity; NF-κB, nuclear factor κB; TNF-α; tumor necrosis factor α; SD, standard deviation.
HEK293 cells were grown in a 96-well plate at 3 × 10^4 cells/well in triplicate and treated with DMSO or listed small molecules at indicated concentrations for 24 h. Cell survival was determined by adding 20 μl of 5 mg/ml MTT (thiazolyl blue tetrazolium bromide) to each well, followed by incubation in 37 °C for 3 h. Media were removed, and purple formazan was dissolved in 100 uL of DMSO. Absorbance was measured at 590 nm on a microplate reader (PerkinElmer, Waltham, MA). Cell viability was calculated by normalizing values to untreated controls.

NF-κB target genes = assay: qRT-PCR of NF-κB target genes in LPS-stimulated Raw 264.7 cells; type: cell-based, mouse; conditions: Fig 4C, LPS 1 μg/ml 2 h, IKKi VII 2 μM, 8K-NBD 200 μM, SR compounds 50 μM, relative to no LPS
IL-6 production = assay: Mouse IL-6 ELISA of supernatant of LPS-stimulated Raw 264.7 cells; type: cell-based; conditions: Fig 4D; IKKi VII 2 μM; LPS 1 μg/ml 24 h
Procedure: Fig 4 Modified lead NBD mimetics inhibit TNF-α- and LPS-induced NF-κB activation by disrupting the association between NEMO and IKKβ. (A) Structures of top NBD mimetics. (B) Measurement of NF-κB activation in response to TNF-α by using Dual-luciferase reporter assays. HEK293 cells cotransfected with NF-κB luciferase reporter and SV40-Renilla plasmids were pretreated with DMSO or listed small molecules at 0, 25, 50, 100, and 150 μM for 30 min, followed by the induction of TNF-α for 3 h. Data shown are representative of 2–3 independent experiments. […] Raw 264.7 cells were pretreated with indicated drugs for 30 min and then stimulated with 1 μg/ml of LPS for 2 h. Cells were then harvested for RNA extraction and qRT-PCR analysis. Drug concentrations used are as follows: IKKi VII (2 μM), 8K-NBD peptide (200 μM), SR12343 (50 μM), SR12460 (50 μM), SR12454 (50 μM), and SR11481 (50 μM). Data are representative of 2 independent experiments. […] Raw 264.7 cells pretreated with DMSO or drugs at indicated concentrations were exposed to 1 μg/ml of LPS for 24 h, and supernatant was collected for ELISA analysis of mouse IL-6. *P < 0.05; **P < 0.01. Underlying data can be found in S1 Data. HEK293, human embryonic kidney 293 cells; IKK, IκB kinase; IL-6, interleukin 6; LPS, lipopolysaccharide; NBD, NEMO-binding domain; n.d., nondetectable; NEMO, NF-κB essential modulator; NF-κB, nuclear factor κB; qRT-PCR, […] real-time polymerase chain reaction; TNF-α; tumor necrosis factor α. TEXT PRINTED IN THE PICTURE: (D) ikki VII: mIL-6 (ng/ml): n.d. | (D) SR12460: mIL-6 (ng/ml): n.d. (50μM) | (D) SR12454: mIL-6 (ng/ml): n.d. (50μM) DOUBTS OF THE COPYIST ABOUT THIS PICTURE: Panel D: the only printed results are the three "n.d." labels. They stand in place of bars and are assigned to ikki VII, SR12460 50μM and SR12454 50μM by their position on the axis. All other results are shown only as bars, with no printed numbers.
To confirm the qRT-PCR results, the levels of IL-6 production in Raw 264.7 cells activated by LPS were analyzed by ELISA.
Raw 264.7 cells were grown in 96-well plates and pretreated with vehicle, IKKi VII (2 μM), and small molecules (at indicated concentration) for 1 h, followed by the stimulation with 1 μg/ml of LPS. Supernatant was collected 24 h later for ELISA analysis. IL-6 concentration was measured using a mouse IL-6 ELISA kit (BD) according to the manufacturer’s instructions.

Compound | NF-κB luciferase activity normalized to vehicle (NF-κB activation) | Cell viability normalized to untreated cells (MTT) (HEK293 cells) | other results
O=C(COC(=O)c1cccc2ccccc12)Nc1ncc(C(F)(F)F)cc1Cl [ZINC8] | 56.26 and 53.09 and 63.7 and 43.79 and 59.31 | 51 and 82 and 57 and 61 | NF-κB luciferase activity normalized to vehicle (NF-κB activation; listed as Zinc8): lowered NF-κB activity robustly
O=C(COC(=O)c1ccccn1)Nc1ncc(C(F)(F)F)cc1Cl [ZINC10] | 108.77 and 101.36 and 116.46 and 94.96 and 126.1 | 89 and 65 and 84 and 79 | 
O=C(COC(=O)c1cccnc1Cl)Nc1ncc(Cl)cc1Cl [ZINC6] | 114.53 and 96.57 and 113.68 and 101.67 and 104.3 | 90 and 71 and 78 and 92 | 
O=C(NN=C1CCN(Cc2ccccc2)CC1)[C@H]1C[C@@H]1c1ccccc1 [ZINC05682974] |  |  | NF-κB luciferase activity normalized to untreated stimulated control (NF-κB activation): remained unchanged; NF-κB luciferase activity normalized to untreated stimulated control (NF-κB activation; listed as ZINC05682947): 105.454 and 97.4199
O=C(COC(=O)Cc1ccccc1)Nc1ncc(Cl)cc1Cl [ZINC9] | 67.06 and 59.84 and 88.3 and 70.04 and 84.32 | 92 and 86 and 88 | NF-κB luciferase activity normalized to vehicle (NF-κB activation; listed as Zinc9): lowered NF-κB activity robustly
O=C(COC(=O)c1ccc2ccccc2c1)Nc1ncc(C(F)(F)F)cc1Cl [ZINC4] | 99.2 and 99.51 and 98.62 and 84.84 and 111.34 | 62 and 80 and 74 and 70 | 
O=C(COC(=O)c1ccc(F)cc1)Nc1ccc(Cl)cn1 [ZINC15] | 103.61 and 97.73 and 103.85 and 95.58 and 115.08 | 58 and 77 and 86 | 
O=C(COC(=O)c1c2ccccc2cc2ccccc12)Nc1ncc(C(F)(F)F)cc1Cl [ZINC7] | 99.14 and 98.45 and 107.93 and 94.89 | 73 and 51 and 70 and 69 | 
NC(=O)COC(=O)c1cccnc1Nc1ccccc1F [ZINC13] | 100.33 and 91.05 and 121.31 and 95.5 and 122.97 | 82 and 81 and 84 and 90 | 
O=C(COC(=O)c1ccc(Cl)nc1)Nc1ncc(Cl)cc1Cl [ZINC11] | 90.11 and 74.66 and 111.57 and 92.82 and 119.55 | 77 and 62 and 78 and 72 | 
O=C(COC(=O)c1cccc(F)c1)Nc1ccc(Cl)cn1 [ZINC14] | 108.83 and 98.08 and 117.73 and 100.75 and 124.98 | 60 and 64 and 68 and 84 | 
O=C(c1ccc(Nc2nccc(-c3cc4ccccc4s3)n2)cc1)N1CCC(N2CCCC2)CC1 [IKKi VII, reference compound] | lowered NF-κB activity robustly |  | iNOS mRNA expression (qRT-PCR) (NF-κB target genes): failed to down-regulate iNOS expression; COX2 mRNA expression (qRT-PCR) (NF-κB target genes; listed as ikki VII): 169.382 and 169.611 and 190.029; IL6 mRNA expression (qRT-PCR) (NF-κB target genes; listed as ikki VII): 61.5373 and 59.8482 and 47.3662; IL-1b mRNA expression (qRT-PCR) (NF-κB target genes; listed as ikki VII): 67.7567 and 72.7507 and 75.5037; TNFa mRNA expression (qRT-PCR) (NF-κB target genes; listed as ikki VII): 61.1388 and 68.3653 and 68.6282; iNOS mRNA expression (qRT-PCR) (NF-κB target genes; listed as ikki VII): 24.1042 and 20.2843 and 19.9052; ikBa mRNA expression (qRT-PCR) (NF-κB target genes; listed as ikki VII): 8.329 and 8.125 and 9.136; mIL-6 in supernatant (ELISA) (IL-6 production): 0 ng/mL
O=C(COC(=O)c1ccc(F)cc1F)Nc1ccc(Cl)cn1 [ZINC12] | 95.61 and 79.06 and 109.79 and 80.64 and 92.59 | 94 and 85 and 87 | 
O=C(COC(=O)c1nc(Cl)ccc1Cl)Nc1ncc(Cl)cc1Cl [ZINC2] | 87.9 and 94.94 and 107.72 and 95.11 and 110.04 |  | 
O=C(COC(=O)c1ncc(Cl)c(Cl)c1Cl)Nc1ccc(Cl)cn1 [ZINC1] | lowered NF-κB activity robustly |  | 
O=C(COC(=O)c1nc(Cl)ccc1Cl)Nc1ccc(Cl)cn1 [ZINC3] | 111.63 and 103.8 and 115.96 and 89.11 and 115.8 | 97 and 81 and 75 | 
